The record followed here is patent US20200113982A1, “Composition and Uses Thereof” (Arborvitae Health and Wellbeing Pty. Ltd., priority 2015, published 2020).

Structures are written as SMILES.

This data set in a line: Case Study 5: Patient A, high cholesterol, blood tests. Type of data set: in vivo, human. The conditions noted are these: patient-reported, earlier statin use. The procedure:
Patient A is a person who has had high cholesterol for approximately 20 years, and who is reasonably fit and is not overweight.
Patient A has been taking 100 mL of the composition of Example 1 each day for a period of 3 weeks. The results of a blood test on 14 Jan. 2015 (prior to taking the composition of Example 1) and a blood test on 24 Jun. 2015 (after taking the composition of Example 1 for 3 weeks) gave the results in Table 6: […]

For `CC(C)c1c(C(=O)Nc2ccccc2)c(-c2ccccc2)c(-c2ccc(F)cc2)n1CC[C@@H](O)C[C@@H](O)CC(=O)O` [Lipitor], the side effects result is “muscle aches and pain, tiredness, joint pain and a general feeling of not being well”.
